Laboratory results published in article PMC5838106, “Cathelicidin promotes inflammation by enabling binding of self-RNA to cell surface scavenger receptors” (Scientific Reports, 2018).
Where no end group is shown, it is not given here.

Assays:
SR-A6 = molecular target: T1, SR-A6 (Homo sapiens, UniProt Q9UEW3); assay: Proximity ligation assay for SR-A6 and U1 RNA; type: cell-based; details: NHEKs, peptide 2.5 μM 10 minutes, biotinylated U1 RNA 2.5 μg/mL, 4 °C, 1 hour
T1 construct: Proximity ligation assay for SR-A6 and U1; endogenous in cells; host or cells: NHEK (primary neonatal human epidermal keratinocytes)
T1 sequence (Q9UEW3 1-520): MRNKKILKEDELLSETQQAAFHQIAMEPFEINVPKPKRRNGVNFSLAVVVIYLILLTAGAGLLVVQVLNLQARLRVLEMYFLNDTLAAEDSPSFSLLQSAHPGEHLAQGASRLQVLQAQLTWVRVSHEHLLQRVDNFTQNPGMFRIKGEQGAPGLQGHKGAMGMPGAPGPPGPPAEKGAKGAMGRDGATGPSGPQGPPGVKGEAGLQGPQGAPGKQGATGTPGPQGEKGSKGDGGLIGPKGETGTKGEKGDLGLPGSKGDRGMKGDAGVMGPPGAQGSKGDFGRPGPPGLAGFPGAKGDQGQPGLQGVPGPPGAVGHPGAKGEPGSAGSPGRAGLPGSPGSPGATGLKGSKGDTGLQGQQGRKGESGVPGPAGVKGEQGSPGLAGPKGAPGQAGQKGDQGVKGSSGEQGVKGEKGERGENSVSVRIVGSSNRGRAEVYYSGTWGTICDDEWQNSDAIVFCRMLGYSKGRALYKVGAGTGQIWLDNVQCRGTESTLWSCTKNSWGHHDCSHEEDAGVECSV
Protocol: NHEKs seeded into 8 chamber slides (Thermo Fisher Scientific) were incubated with various combination of U1 RNA, poly(I:C), cathelicidin peptides, and fucoidan for 1 hour at 4 °C allowing binding, but not internalization. Unbound RNA was removed by washing with cold PBS. Cells were fixed with 4% PFA at 4 °C. Blocking buffer (Sigma) was used to prevent nonspecific antibody binding, and cells were incubated with two primary antibodies. […] Fluorescent PLA signals were evaluated using fluorescence microscopy (described above). Signals are counted by Duolink ImageTool software version 1.0.1.2 (Sigma-aldrich). […]
RNA. NHEKs were cultured with various cathelicidin peptides (2.5 µM) for 10 minutes, then with biotinylated U1 RNA (2.5 µg/mL) at 4 °C for 1 hour before physical proximity of SR-A6 and U1 RNA was determined using a fluorescence-based PLA that produces a red fluorescent signal. […] PMA-treated THP1 were cultured with various cathelicidin peptides (3 µM) for 10 minutes, then with biotinylated U1 RNA (2.5 µg/mL) at 4 °C for 1 hour before physical proximity of U1 RNA and scavenger receptors was determined using a fluorescence-based PLA, each count is PLA complexes observed in 5 visual fields. f) NHEKs cultured at 37 °C that were stained immediately after or after 5 […]

NHEKs = assay: U1 RNA co-association with early endosome (EEA1) in NHEKs; type: cell-based, human; details: 37 °C, 4 hours
Description: Figure 2 Structure and cell binding of cathelicidin and dsRNA. (a) Structures of LL37, LL34, and LL34(I20P) bound to dsRNA were solved using SAXS. SAXS data is plotted as the scattering intensity I(q) vs. the momentum transfer vector q. LL34 (blue) and LL34(I20P) (green) condense dsRNA into square lattices with first peak positions of q10 = 0.167 Å^−1 and 0.170 Å^−1, respectively. Higher order Bragg reflections due to scattering of the square lattice of LL34 and LL34(I20P) are labeled for both complexes. In comparison, LL37 (magenta) condenses dsRNA into a columnar lattice with short-ranged order, with a first peak position of q1 = 0.172 Å^−1. (b) Linear fits of Bragg peak positions indicate that LL34-dsRNA (blue) and LL34(I20P)-dsRNA (green) complexes have inter-dsRNA spacings of 3.76 nm and 3.70 nm, respectively. Each reflection corresponding to the peaks in a for LL34 and LL34(I20P) are labeled. Close overlap of the two linear fits indicate that LL34-dsRNA and LL34(I20P)-dsRNA complexes have similar unit cell structures and inter-dsRNA spacings. End-on views along the dsRNA long-axis of the columnar (c) LL37-dsRNA and (d) LL34-dsRNA or LL34(I20P)-dsRNA complexes are shown. In (d), LL34-dsRNA and LL34(I20P)-dsRNA both form square columnar structures with similar unit cell architectures. […]

close association between U1 RNA and SR-A6 (PLA, <40 nm) (SR-A6)	Substance	co-association of U1 RNA with the early endosome (NHEKs)
enabled close association	LL37	induced partial co-association with the early endosome
enabled close association	LLGDFFRKSKEKIGKEFKRIVQRIKDFLRNLVPR [LL34]	induced partial co-association with the early endosome
